Legend:
Assay in all cases: normalised response (% of control), CellTox Green; higher = less cell death (100 = DMSO, 0 = benzethonium chloride kill control)
Conditions in all cases: incubation time: 72 h
HCC1937 = tested on: HCC1937
How it was run: (§1)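 In 384-well plates holding compound at 5 concentrations in 10-fold steps over a 10,000-fold range specific to each compound, breast cancer cell lines were seeded as 20 µl suspension and incubated 72 h. CellTox Green fluorescence was measured at 485/520 nm, after which CellTiter-Glo luminescence was measured following 10 min at room temperature. Plate signals were normalised to 0.1 % DMSO (100) and a positive kill control (0), and each value is the normalised signal at a single concentration.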

CAL-85-1 = tested on: CAL-85-1
How it was run: as §1

HCC1599 = tested on: HCC1599
How it was run: as §1

DU-4475 = tested on: DU-4475
How it was run: as §1

BT-474 = tested on: BT-474
How it was run: as §1

MDA-MB-453 = tested on: MDA-MB-453
How it was run: as §1

CAL-120 = tested on: CAL-120
How it was run: as §1

CAL-148 = tested on: CAL-148
How it was run: as §1

Hs578T = tested on: Hs578T
How it was run: as §1

CAL-51 = tested on: CAL-51
How it was run: as §1

BT-549 = tested on: BT-549
How it was run: as §1

Question: How did the normalised response (HCC1937) turn out when N#Cc1ccc(COC[C@H]2O[C@@H](n3c(NCc4ccc(Cl)c(Cl)c4)nc4c(N)ncnc43)[C@H](O)[C@@H]2O)cc1 (1000 nM) was run?
Answer: 90.4%

Question: And the normalised response (CAL-85-1)?
Answer: 97.6%

Question: And the normalised response (HCC1599)?
Answer: 102%

Question: And the normalised response (DU-4475)?
Answer: 103%

Question: And the normalised response (BT-474)?
Answer: 100%

Question: What about the normalised response (MDA-MB-453) of the same compound?
Answer: 112%

Question: And the normalised response (CAL-120)?
Answer: 96.4%

Question: And the normalised response (CAL-148)?
Answer: 107%

Question: And the normalised response (Hs578T)?
Answer: 103%

Question: And the normalised response (CAL-51)?
Answer: 119%

Question: What about the normalised response (BT-549) of the same compound?
Answer: 123%

Question: How did the normalised response (HCC1937) turn out when CNC(=O)c1cc(Oc2ccc(NC(=O)Nc3ccc(Cl)c(C(F)(F)F)c3)c(F)c2)ccn1 [Regorafenib] (1000 nM) was run?
Answer: 122%

Question: What about the normalised response (CAL-85-1) of the same compound?
Answer: 103%

Question: And the normalised response (HCC1599)?
Answer: 103%

Question: And the normalised response (DU-4475)?
Answer: 102%

Question: And the normalised response (BT-474)?
Answer: 101%

Question: What about the normalised response (MDA-MB-453) of the same compound?
Answer: 107%

Question: What about the normalised response (CAL-120) of the same compound?
Answer: 102%

Question: And the normalised response (CAL-148)?
Answer: 103%

Question: What about the normalised response (Hs578T) of the same compound?
Answer: 110%

Question: What about the normalised response (CAL-51) of the same compound?
Answer: 87.7%

Question: And the normalised response (BT-549)?
Answer: 116%

Question: For CN(C)c1nc(N(C)C)nc(N(C)C)n1 [Altretamine] (10000 nM), which normalised response (HCC1937) is on record?
Answer: 104%

Question: What about the normalised response (CAL-85-1) of the same compound?
Answer: 87.6%

Question: And the normalised response (HCC1599)?
Answer: 103%

Question: What about the normalised response (DU-4475) of the same compound?
Answer: 98.3%

Question: What about the normalised response (BT-474) of the same compound?
Answer: 102%

Question: And the normalised response (MDA-MB-453)?
Answer: 105%

Question: What about the normalised response (CAL-120) of the same compound?
Answer: 102%

Question: What about the normalised response (CAL-148) of the same compound?
Answer: 91%

Question: And the normalised response (Hs578T)?
Answer: 112%

Question: And the normalised response (CAL-51)?
Answer: 109%

Question: What about the normalised response (BT-549) of the same compound?
Answer: 97.2%

Question: Which normalised response (HCC1937) does the source give for COc1cc2ncnc(Nc3ccc(F)c(Cl)c3)c2cc1OCCCN1CCOCC1 [Gefitinib] (1000 nM) here?
Answer: 123%

Question: What about the normalised response (CAL-85-1) of the same compound?
Answer: 79.5%

Question: And the normalised response (HCC1599)?
Answer: 97.8%

Question: What about the normalised response (DU-4475) of the same compound?
Answer: 101%

Question: And the normalised response (BT-474)?
Answer: 91%

Question: What about the normalised response (MDA-MB-453) of the same compound?
Answer: 98.3%

Question: What about the normalised response (CAL-120) of the same compound?
Answer: 100%

Question: What about the normalised response (CAL-148) of the same compound?
Answer: 89.8%

Question: What about the normalised response (Hs578T) of the same compound?
Answer: 95.9%

Question: What about the normalised response (CAL-51) of the same compound?
Answer: 108%

Question: What about the normalised response (BT-549) of the same compound?
Answer: 123%

Question: Which normalised response (HCC1937) does the source give for O=C(/C=C/c1cccc(S(=O)(=O)Nc2ccccc2)c1)NO [Belinostat] (1000 nM) here?
Answer: 117%

Question: What about the normalised response (CAL-85-1) of the same compound?
Answer: 51.1%

Question: What about the normalised response (HCC1599) of the same compound?
Answer: 86.1%

Question: And the normalised response (DU-4475)?
Answer: 75.8%

Question: And the normalised response (BT-474)?
Answer: 65.2%

Question: What about the normalised response (MDA-MB-453) of the same compound?
Answer: 99.5%

Question: And the normalised response (CAL-120)?
Answer: 70.4%

Question: And the normalised response (CAL-148)?
Answer: 66.4%

Question: And the normalised response (Hs578T)?
Answer: 77.3%

Question: What about the normalised response (CAL-51) of the same compound?
Answer: 50.8%

Question: And the normalised response (BT-549)?
Answer: 129%

Question: Which results are given for CCc1c2c(nc3ccc(OC(=O)N4CCC(N5CCCCC5)CC4)cc13)-c1cc3c(c(=O)n1C2)COC(=O)[C@]3(O)CC [Irinotecan] (10000 nM)?
Answer: normalised response (HCC1937): 55.9%; normalised response (CAL-85-1): 64.6%; normalised response (HCC1599): 87%; normalised response (DU-4475): 84.8%; normalised response (BT-474): 102%; normalised response (MDA-MB-453): 109%; normalised response (CAL-120): 74.3%; normalised response (CAL-148): 44.4%; normalised response (Hs578T): 104%; normalised response (CAL-51): -10.4%; normalised response (BT-549): 107%

Question: How did the normalised response (HCC1937) turn out when Oc1ccc2c(c1)CC[C@H](c1ccccc1)[C@@H]2c1ccc(OCCN2CCCC2)cc1 [Lasofoxifene] (1000 nM) was run?
Answer: 72.2%

Question: And the normalised response (CAL-85-1)?
Answer: 69.3%

Question: And the normalised response (HCC1599)?
Answer: 111%

Question: And the normalised response (DU-4475)?
Answer: 102%

Question: What about the normalised response (BT-474) of the same compound?
Answer: 99.8%

Question: And the normalised response (MDA-MB-453)?
Answer: 104%

Question: And the normalised response (CAL-120)?
Answer: 99.7%

Question: What about the normalised response (CAL-148) of the same compound?
Answer: 103%

Question: And the normalised response (Hs578T)?
Answer: 68.7%

Question: What about the normalised response (CAL-51) of the same compound?
Answer: 105%

Question: What about the normalised response (BT-549) of the same compound?
Answer: 118%

Question: How did the normalised response (HCC1937) turn out when COc1cc2ncnc(Nc3ccc(F)c(Cl)c3)c2cc1OCCCN1CCOCC1 [Gefitinib] (10000 nM) was run?
Answer: 98.2%

Question: What about the normalised response (CAL-85-1) of the same compound?
Answer: 45.8%

Question: What about the normalised response (HCC1599) of the same compound?
Answer: 96.9%

Question: And the normalised response (DU-4475)?
Answer: 96.9%

Question: And the normalised response (BT-474)?
Answer: 17.4%

Question: What about the normalised response (MDA-MB-453) of the same compound?
Answer: 79%

Question: What about the normalised response (CAL-120) of the same compound?
Answer: 95.4%

Question: What about the normalised response (CAL-148) of the same compound?
Answer: 48.3%

Question: And the normalised response (Hs578T)?
Answer: 102%

Question: And the normalised response (CAL-51)?
Answer: 104%

Question: What about the normalised response (BT-549) of the same compound?
Answer: 114%
